The values that follow come from patent US7674810B2, “1,1-dioxo-1H-1Λ6-benzo[d]isothiazol-3-yl)-4-hydroxy-1,5-dihydro-pyrrol-2-one inhibitors of HCV polymerase” (Roche Palo Alto LLC, priority 2006, dated 2010).

Molecules are shown by their SMILES.

Usually IC50 stands for the concentration needed to halve the response being measured. Usually melting point stands for the temperature of the solid-liquid transition.

T1 sequence (P26663 2421-2999): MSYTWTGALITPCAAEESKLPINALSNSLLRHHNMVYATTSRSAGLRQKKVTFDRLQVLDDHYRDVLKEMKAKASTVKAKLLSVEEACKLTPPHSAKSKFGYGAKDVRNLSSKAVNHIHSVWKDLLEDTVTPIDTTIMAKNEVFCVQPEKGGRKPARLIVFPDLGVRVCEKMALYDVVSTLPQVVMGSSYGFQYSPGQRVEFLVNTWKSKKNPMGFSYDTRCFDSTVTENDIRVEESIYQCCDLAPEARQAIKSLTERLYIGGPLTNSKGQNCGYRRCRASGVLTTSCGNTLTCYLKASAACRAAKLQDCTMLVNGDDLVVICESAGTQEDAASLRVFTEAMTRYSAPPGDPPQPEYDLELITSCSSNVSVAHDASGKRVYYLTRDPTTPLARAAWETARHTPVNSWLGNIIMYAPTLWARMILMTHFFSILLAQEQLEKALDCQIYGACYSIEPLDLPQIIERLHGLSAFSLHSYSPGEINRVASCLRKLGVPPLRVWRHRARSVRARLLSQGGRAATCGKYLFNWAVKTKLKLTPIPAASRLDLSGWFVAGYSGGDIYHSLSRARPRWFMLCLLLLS

The first series addresses T1, HCV NS5B570n-BK (Hepatitis C virus genotype 1b, UniProt P26663).
T1 construct: histidine tag (N); made in house; host or cells: E. coli strain M15
Kind of series: HCV NS5B RNA Polymerase Activity. It is filed as biochemical, HCV BK strain. The following applies: poly A:oligo U16, tritiated UTP, 2 h at 30° C. Here is the method:
The enzymatic activity of HCV NS5B570n-BK is measured as incorporation of radiolabeled nucleotide monophosphates into acid insoluble RNA products. Unincorporated radiolabel substrate is removed by filtration and scintillant is added to the washed and dried filter plate containing radiolabeled RNA product. The light emitted by the scintillant is proportional to the amount of RNA product generated by NS5B570n-BK at the endpoint of the reaction.
The N-terminally histidine tagged HCV polymerase, derived from HCV BK strain, genotype 1b (NS5B570n-BK) contains a 21 amino acid deletion at the C-terminus relative to the full-length HCV polymerase and is purified from E. coli strain M15. The construct containing the coding sequence of HCV BK strain amino acid residues 2421-2999 (GenBank accession number M58335) downstream of a Taq promoter expression cassette was inserted into plasmid constructs. The plasmid constructs are transformed in E. coli and colonies are inoculated and grown overnight in 10 L of Terrific broth (Tartoff and Hobbs) supplemented with 100 μg/mL ampicillin at 37° C. Protein expression is induced by addition of 1 mM isopropyl-β-D -thiogalactopyranoside (IPTG), when optical densities reaches between 1.5 and 3.5 OD600 and the culture is then incubated for 16- to 18 h at 22° C. NS5B570n -BK is purified to homogeneity using a three step protocol including subsequent column chromatography on Ni-NTA, SP-Sepharose HP and Superdex 75 resins.
Each 50 μl enzymatic reaction contains 8:4 μg/mL poly A:oligo U16 (template:primer), 200 nM NS5B570n-BK enzyme, 2.1 μCi of tritiated UTP (Perkin Elmer catalog no. TRK -412; specific activity: 30 to 60 Ci/mmol; stock solution concentration from 7.5×10^−5 M to 20.6×10^−6 M), 1 μM ATP, CTP, and GTP, 40 mM Tris-HCl pH 8.0, 2 to 40 mM NaCl, 4 mM DTT (dithiothreitol), 4 mM MgCl2, and 5 μl of compound serial diluted in DMSO. Reaction mixtures are assembled in MADVN0B 96-well filter plates (Millipore Co.) and incubated for 2 h at 30° C. Reactions are stopped by addition of 10% (v/v) trichloroacetic acid and incubated for 40 min at 4° C. Reactions are filtered, washed with 6 reaction volumes of 10% (v/v) trichloroacetic acetic acid, 2 reaction volumes of 70% (v/v) ethanol, air dried, and 25 μl of scintillant (Microscint 20, Perkin-Elmer) is added to each reaction well.
The amount of light emitted from the scintillant is converted to counts per minute (CPM) on a Topcount® plate reader (Perkin-Elmer, Energy Range: Low, Efficiency Mode: Normal, Count Time: 1 min, Background Subtract: none, Cross talk reduction: Off).
Data is analyzed with GraphPad® Prism® and/or Microsoft® Excel®. The reaction in the absence of enzyme is used to determine the background signal, which is subtracted from the enzymatic reactions. Positive control reactions are performed in the absence of compound, from which the background corrected activity is set as 100% polymerase activity. All data is expressed as a percentage of the positive control. The compound concentration at which the enzyme-catalyzed rate of RNA synthesis is reduced by 50% (IC50) is calculated by fitting equation (i) to
[formula] the data, where “Y” corresponds to the relative enzyme activity (in %), “% Min” is the residual relative enzymatic activity at saturating compound concentration, “% Max” is the maximal relative enzymatic activity compared to positive control, X corresponds to the compound concentration, and “S” is the Hill coefficient (or slope). […]
In turn, `CC(C)(C)[C@H]1C(O)=C(C2=NS(=O)(=O)c3ccccc32)C(=O)N1Cc1ccc(F)c(Cl)c1` [II-31, (S)-5-tert-Butyl-1-(3-chloro-4-fluoro-benzyl)-3-(1,1-dioxo-1H-1λ^6-benzo[d]isothiazol-3-yl)-4-hydroxy-1,5-dihydro-pyrrol-2-one] returned a half-maximal inhibitory concentration (IC50) of 208 nM.
The same measure, in the same setting: the figure for `CC(C)(C)[C@H]1C(O)=C(C2=NS(=O)(=O)c3c(CNS(C)(=O)=O)cccc32)C(=O)N1Cc1ccc(F)cc1` [II-23, N-{3-[(S)-5-tert-Butyl-1-(4-fluoro-benzyl)-4-hydroxy-2-oxo-2,5-dihydro-1H-pyrrol-3-yl]-1,1-dioxo-1H-1λ^6-benzo[d]isothiazol-7-ylmethyl}-methanesulfonamide] is 76 nM.

The subject of another series is Renilla luciferase HCV replicon cells (2209-23). As to the kind of experiment: Renilla luciferase Assay (HCV replicon). In kind it is cell-based, HCV; human hepatoma Huh7 cells. The following applies: 72 h; replicon cell line 2209-23, three days incubation; read-out: R. luciferase Activity IC50. On the technique in general: Replicon systems follow genome replication, usually without infectious particles.
Regarding `Cc1cc(CN2C(=O)C(C3=NS(=O)(=O)c4c(CN(C)S(C)(=O)=O)cccc43)=C(O)[C@@H]2C(C)(C)C)ccc1F` [II-77, N-{3-[(S)-5-tert-Butyl-1-(4-fluoro-3-methyl-benzyl)-4-hydroxy-2-oxo-2,5-dihydro-1H-pyrrol-3-yl]-1,1-dioxo-1H-1λ^6-benzo[d]isothiazol-7-ylmethyl}-N-methyl-methanesulfonamide], the IC50 was 129 nM.
On to `Cc1cc(CN2C(=O)C(C3=NS(=O)(=O)c4c(CNS(C)(=O)=O)cccc43)=C(O)C2C(C)(C)C)ccc1F` (centres unmarked) [II-38, N-{3-[5-tert-Butyl-1-(4-fluoro-3-methyl-benzyl)-4-hydroxy-2-oxo-2,5-dihydro-1H-pyrrol-3-yl]-1,1-dioxo-1H-1λ^6-benzo[d]isothiazol-7-ylmethyl}-methanesulfonamide], for which the IC50 came to 35 nM.
The same measure, in the same setting: the figure for `CC(C)(C)[C@H]1C(O)=C(C2=NS(=O)(=O)c3ccccc32)C(=O)N1Cc1ccc(F)c(Cl)c1` [II-31, (S)-5-tert-Butyl-1-(3-chloro-4-fluoro-benzyl)-3-(1,1-dioxo-1H-1λ^6-benzo[d]isothiazol-3-yl)-4-hydroxy-1,5-dihydro-pyrrol-2-one] is 288 nM; for `CC(C)(C)[C@H]1C(O)=C(C2=NS(=O)(=O)c3c(OCS(N)(=O)=O)cccc32)C(=O)N1Cc1ccc(F)cc1` [II-64, {3-[(S)-5-tert-Butyl-1-(4-fluoro-benzyl)-4-hydroxy-2-oxo-2,5-dihydro-1H-pyrrol-3-yl]-1,1-dioxo-1H-1λ^6-benzo[d]isothiazol-7-yloxy}-methanesulfonamide] it is 228 nM.
With `CC(C)(C)[C@H]1C(O)=C(C2=NS(=O)(=O)c3c(CNS(=O)(=O)N4CCNCC4)cccc32)C(=O)N1Cc1ccc(F)cc1.O=C(O)C(F)(F)F` [II-91, Piperazine-1-sulfonic acid {3-[(S)-5-tert-butyl-1-(4-fluoro-benzyl)-4-hydroxy-2-oxo-2,5-dihydro-1H-pyrrol-3-yl]-1,1-dioxo-1H-1λ^6-benzo[d]isothiazol-7-ylmethyl}-amide; compound with trifluoro-acetic acid], the 50% inhibitory concentration (IC50) stood at 143 nM.
Take `CC(C)(C)[C@H]1C(O)=C(C2=NS(=O)(=O)c3c(CNS(C)(=O)=O)cccc32)C(=O)N1Cc1ccc(F)cc1` [II-23, N-{3-[(S)-5-tert-Butyl-1-(4-fluoro-benzyl)-4-hydroxy-2-oxo-2,5-dihydro-1H-pyrrol-3-yl]-1,1-dioxo-1H-1λ^6-benzo[d]isothiazol-7-ylmethyl}-methanesulfonamide]: the half-inhibitory concentration (IC50) was found to be 56 nM.
Same read-out and setting: the figure for `CC(C)(C)[C@H]1C(O)=C(C2=NS(=O)(=O)c3c(CNS(N)(=O)=O)cccc32)C(=O)N1Cc1ccc(F)cc1` [II-41, Amino-sulfonic acid {3-[(S)-5-tert-butyl-1-(4-fluoro-benzyl)-4-hydroxy-2-oxo-2,5-dihydro-1H-pyrrol-3-yl]-1,1-dioxo-1H-1λ^6-benzo[d]isothiazol-7-ylmethyl}-amide] is 58 nM; for `CC(C)(C)[C@H]1C(O)=C(C2=NS(=O)(=O)c3c(OCS(C)(=O)=O)cccc32)C(=O)N1Cc1ccc(F)cc1` [II-81, (S)-5-tert-Butyl-1-(4-fluoro-benzyl)-4-hydroxy-3-(7-methanesulfonylmethoxy-1,1-dioxo-1H-1λ^6-benzo[d]isothiazol-3-yl)-1,5-dihydro-pyrrol-2-one] it is 235 nM.

System in another series: not given
Experiment: not given
Conditions: not given
Compound `CC(C)(C)[C@H]1C(O)=C(C2=NS(=O)(=O)c3ccccc32)C(=O)N1Cc1ccc(F)c(Cl)c1` [II-31, (S)-5-tert-Butyl-1-(3-chloro-4-fluoro-benzyl)-3-(1,1-dioxo-1H-1λ^6-benzo[d]isothiazol-3-yl)-4-hydroxy-1,5-dihydro-pyrrol-2-one] showed a melting point of 81 to 96 °C.
Compound `CC(C)(C)[C@H]1C(O)=C(C2=NS(=O)(=O)c3c(CNS(=O)(=O)N4CCNCC4)cccc32)C(=O)N1Cc1ccc(F)cc1.O=C(O)C(F)(F)F` [II-91, Piperazine-1-sulfonic acid {3-[(S)-5-tert-butyl-1-(4-fluoro-benzyl)-4-hydroxy-2-oxo-2,5-dihydro-1H-pyrrol-3-yl]-1,1-dioxo-1H-1λ^6-benzo[d]isothiazol-7-ylmethyl}-amide; compound with trifluoro-acetic acid] came in with a melting point of 95 to 115 °C.
The compound `CC(C)(C)[C@H]1C(O)=C(C2=NS(=O)(=O)c3c(CNS(C)(=O)=O)cccc32)C(=O)N1Cc1ccc(F)cc1` [II-23, N-{3-[(S)-5-tert-Butyl-1-(4-fluoro-benzyl)-4-hydroxy-2-oxo-2,5-dihydro-1H-pyrrol-3-yl]-1,1-dioxo-1H-1λ^6-benzo[d]isothiazol-7-ylmethyl}-methanesulfonamide] returned a melting point of 105 to 128 °C.
Turning to `CN(C)S(=O)(=O)N(C)Cc1cccc2c1S(=O)(=O)N=C2C1=C(O)[C@H](C(C)(C)C)N(Cc2ccc(F)cc2)C1=O`, the melting point was in the range of 109 to 115 °C.
Still for that read-out and setting: the figure for `CC(C)CCc1nc(C2=NS(=O)(=O)c3ccccc32)c(O)c2ccccc12` is 206 to 209 °C; for `CC(C)(C)[C@H]1C(O)=C(C2=NS(=O)(=O)c3c(CNS(=O)(=O)N4CCCC4)cccc32)C(=O)N1Cc1ccc(F)cc1` it is 112 to 125 °C.
`CC(C)(C)[C@H]1C(O)=C(C2=NS(=O)(=O)c3c2ccc2ccccc32)C(=O)N1Cc1ccc(F)cc1`: the melting point was 205 °C (dec.).
Still for that read-out and setting: the figure for `Cc1nc(S(=O)(=O)NCc2cccc3c2S(=O)(=O)N=C3C2=C(O)[C@H](C(C)(C)C)N(Cc3ccc(F)cc3)C2=O)cn1C.O=C(O)C(F)(F)F` is 110 to 116 °C; for `CC(C)(C)[C@H]1C(O)=C(C2=NS(=O)(=O)c3ccccc32)C(=O)N1Cc1cccs1` it is 105 to 123 °C; for `CC(C)(C)[C@H]1C(O)=C(C2=NS(=O)(=O)c3c(NS(C)(=O)=O)cccc32)C(=O)N1Cc1ccc(F)cc1` it is 245 to 250 °C.
As to `CN(C)C(=O)CNc1cccc2c1S(=O)(=O)N=C2C1=C(O)[C@H](C(C)(C)C)N(Cc2ccc(F)cc2)C1=O`, the melting point lay in the range of 185 to 190 °C.
The same measure, in the same setting: the result for `Cc1cc(CN2C(=O)C(C3=NS(=O)(=O)c4c(CNS(=O)(=O)N5CCNCC5)cccc43)=C(O)[C@@H]2C(C)(C)C)ccc1F.O=C(O)C(F)(F)F` reads 135 to 151 °C.
On the same count and under the same terms, the figure for `CC(C)(C)[C@H]1C(O)=C(C2=NS(=O)(=O)c3c(OCS(C)(=O)=O)cccc32)C(=O)N1Cc1ccc(F)cc1` [II-81, (S)-5-tert-Butyl-1-(4-fluoro-benzyl)-4-hydroxy-3-(7-methanesulfonylmethoxy-1,1-dioxo-1H-1λ^6-benzo[d]isothiazol-3-yl)-1,5-dihydro-pyrrol-2-one] is 143 to 151 °C; for `Cc1cc(CN2C(=O)C(C3=NS(=O)(=O)c4c(CNS(=O)(=O)N5CCC(N)C5)cccc43)=C(O)[C@@H]2C(C)(C)C)ccc1F.O=C(O)C(F)(F)F` (some centres unmarked) it is 128 to 134 °C.
Regarding `CC(C)[C@H]1C(O)=C(C2=NS(=O)(=O)c3ccccc32)C(=O)N1Cc1ccc(F)cc1`, the melting point lay within 95 to 110 °C.
Same read-out and setting: the result for `CC(C)(C)[C@H]1C(O)=C(C2=NS(=O)(=O)c3c(CNS(=O)(=O)N4CCOCC4)cccc32)C(=O)N1Cc1ccc(F)cc1` reads 118 to 129 °C.
On the same count and under the same terms, the figure for `CN(Cc1cccc2c1S(=O)(=O)N=C2C1=C(O)[C@H](C(C)(C)C)N(Cc2ccc(F)cc2)C1=O)S(=O)(=O)N1CCNCC1.O=C(O)C(F)(F)F` is 113 to 128 °C; for `COc1ccc(-c2cccc3c2S(=O)(=O)N=C3c2nc(Cc3ccc(F)cc3)c3ccccc3c2O)cn1` it is 194 to 196 °C.
Same read-out and setting: the figure for `CC(C)(C)[C@H]1C(O)=C(C2=NS(=O)(=O)c3ccccc32)C(=O)N1Cc1ccc(F)c(F)c1` is 80 to 89 °C; for `CC(C)(C)[C@H]1C(O)=C(C2=NS(=O)(=O)c3ccccc32)C(=O)N1CC1CCC1` it is 69 to 78 °C.
Turning to `CC(C)(C)[C@H]1C(O)=C(C2=NS(=O)(=O)c3c2cccc3-c2cn[nH]c2)C(=O)N1Cc1ccc(F)cc1`, the melting point is above 250 °C.
Same read-out and setting: the figure for `O=S1(=O)N=C(c2nc(Cc3ccc(F)cc3)c3ccccc3c2O)c2cccc(-c3cccc(F)c3)c21` is above 275 °C; for `CC(C)(C)[C@H]1C(O)=C(C2=NS(=O)(=O)c3c(CCS(C)(=O)=O)cccc32)C(=O)N1Cc1ccc(F)cc1` it is 127 to 135 °C.
Same read-out and setting: the figure for `CC(C)(C)[C@H]1C(O)=C(C2=NS(=O)(=O)c3ccccc32)C(=O)N1Cc1ccc(F)c(C(F)(F)F)c1` is 85 to 91 °C; for `CC(=O)N1CCN(S(=O)(=O)NCc2cccc3c2S(=O)(=O)N=C3C2=C(O)[C@H](C(C)(C)C)N(Cc3ccc(F)cc3)C2=O)CC1` it is 248 to 260 °C; for `CC(C)(C)[C@H]1C(O)=C(C2=NS(=O)(=O)c3ccccc32)C(=O)N1CCC1CC1` it is 135 to 140 °C.
Same read-out and setting: the figure for `CN(C)S(=O)(=O)NCc1cccc2c1S(=O)(=O)N=C2C1=C(O)[C@H](C(C)(C)C)N(Cc2ccc(F)cc2)C1=O` is 102 to 115 °C; for `CNC(=O)COc1cccc2c1S(=O)(=O)N=C2C1=C(O)[C@H](C(C)(C)C)N(Cc2ccc(F)cc2)C1=O` it is above 210 °C.
